Laboratory results reported in PMC8761492 (Life Science Alliance, 2022).
Values joined by “and” are separate entries in the source; they are usually repeats but may differ in a detail not shown here. Equal entries are not always repeated. Where two headings read alike, the source gives them in different places. Starred links: 1 amine or outer side, 2 acyl side, 3 side chain; linkers in the order of their positions; H or OH if unused. Positions of bridges follow the written chain, without caps; N, C: chain ends. Non-standard residues stand in square brackets, D forms with d. Residues, ends and D or L forms follow the SMILES beside them. *: point of attachment. X1 = CC[C@H](C)[C@@H](N[*:1])[C@@H](O)CC(=O)O[C@H](C(=O)[C@H](C)C(=O)[*:2])C(C)C; NMeY = CN[C@@H](Cc1ccc(O)cc1)C(=O)O; dNMeL = CN[C@H](CC(C)C)C(=O)O; Pyruvoyl = CC(=O)C(=O)*

Columns and labels:
[1] = system: HCoV-229E-GFP virus; test: microbe, parasite or virus in culture; type: cell-based, human coronavirus 229E; details: Huh-7 cells
[2] = Plasma protein binding by equilibrium dialysis, rat plasma; type: in vitro ADME; details: male, CD, independent of drug concentration
Protocol: The binding of plitidepsin to plasma proteins was determined in vitro at three concentrations (100, 250 and 500 ng/ml) in male rat, dog and human plasma ([53]).
Rat (CD), beagle dog, and human blood was collected at Aptuit Srl from at least three male donors, and plasma prepared by centrifuging blood at 2,000g, 4°C for 10 min. Human plasma was obtained from healthy and fasted male volunteers. Na-heparin was used as the anti-coagulant for all species. All plasma was stored at approximately −20°C and thawed only once, on the day of the experiment.
Plasma protein binding was assessed using Rapid Equilibrium Dialysis plates pre-loaded with equilibrium dialysis membrane inserts (MWCO ∼8 kD).
Separation of free compound from protein-bound material was achieved by dialysis of the sample through the membrane under appropriate shaking at 37°C. The suitability of equilibrium dialysis as a method for protein binding determination of plitidepsin was assessed.
Before experimentation, the time required to reach equilibrium was determined in male rat and human plasma at one concentration (250 ng/ml) and six selected time points (2, 3, 4, 5, 6, and 7 h) at 37°C. […]

[3] = system: SARS-CoV-2; test: APLICOV-PC: SARS-CoV-2 viral load by qRT-PCR of nasopharyngeal samples; type: in vivo, human; details: for mean viral load decline from baseline: all doses; for log10 viral load: individual patients, ND = not detected
Protocol: Secondary outcomes included change from baseline of viral load, as evaluated by quantitative PCR via central laboratory on nasopharyngeal exudate or sampled from the lower respiratory tract within 48 h before first administration of plitidepsin and on days 4, 7, 15, and 31, and the percentage of patients requiring oxygen therapy, noninvasive mechanical ventilation, invasive mechanical ventilation and/or intensive care unit admission, and the percentage of patients with a fatal outcome on days 7, 15, and 31.
Centralized assessments of nasopharyngeal samples were performed at SYNLAB. Viral RNA extraction from the samples was performed using the Maxwell HT Viral TNA (AX2340) Promega, on the Hamilton automated extraction platform. Detection of nCoV2019 was carried out with the kit: TaqPath TM COVID-19 RT-PCR KIT (A48102) Thermo Fisher Scientific. The positivity/negativity criteria used for the interpretation of the results are defined in Table S7.
Each sample was analyzed in triplicate, and the cycle threshold (CT) value obtained was extrapolated to the standard curve, so that a value of viral load is obtained per reaction for said sample. The quantification, in triplicate, of the viral load of the patient sample was carried out at each of the five time points.
For quantification, in each sample plate, eight points, in triplicate (24 PCR in total), of the plasmid IDT 2019 nCov Kit CDC EUA of known viral load was used to generate the standard line on which to extrapolate the results of the samples of the trial patients. The sensitivity of the analytical method is 10 mRNA copies/run. Assuming a starting sample volume of 200 μl, from which 100 μl of mRNA can be obtained, and that a single PCR run requires 5 μl mRNA, it can be estimated that the sensitivity for 100% of the replicates is 1,000 mRNA copies/ml (3 log10). For mathematical analysis and graphical visualization, an intermediate value of 1.5 log10 has been imputed to samples with undetected SARS-CoV-2 mRNA.

[4] = system: COVID-19; test: APLICOV-PC: post hoc analysis of hospital discharge; type: in vivo, human
Protocol: Post hoc analyses were conducted to (1) assess disease severity at baseline (mild, moderate, severe COVID-19 by FDA criteria) ([23]) and (2) assess covariates associated with efficacy end points, including hospital discharge by Day 15 or Day 8.
The Kaplan–Meier method was used for the description of time to event end points and the median and the 95% confidence intervals were provided.

[5] = human, cited from earlier work
[6] = system: SARS-CoV-2; design: method as in PMID 33495306; details: in vivo; cited from earlier work
[7] = system: CYP3A4; design: method as in study protocol; details: in vitro studies; ref study protocol; cited from earlier work
[8] = system: SARS-CoV-2; test: SARS-CoV-2-induced cytopathic effect in Vero E6 cells (CellTiter-Glo); details: read-out: IC50 against SARS-CoV-2-induced cytopathic effects, 3 d post infection

## CC[C@H](C)[C@H]1NC(=O)[C@@H](NC(=O)[C@@H](CC(C)C)N(C)C(=O)[C@@H]2CCCN2C(=O)C(C)=O)[C@@H](C)OC(=O)[C@H](Cc2ccc(OC)cc2)N(C)C(=O)[C@@H]2CCCN2C(=O)[C@H](CC(C)C)NC(=O)[C@@H](C)C(=O)[C@H](C(C)C)OC(=O)C[C@@H]1O [Plitidepsin] (Pyruvoyl-P[dNMeL]T[X1]LP[NMeY](Me); ester 3-C)
[1]; as low as, equals 0.5 nM
  concentration of plitidepsin with antiviral effect on HCoV-229E-GFP: ≤ 0.555 µg/L
[1]; Human coronavirus 229E, study protocol, read-out: IC50 assumed from the HCoV-229E-GFP experiment
  IC50: 0.5 nM and 0.000555 µg/mL
[2]
  fraction unbound: 0.04
[3]; 1.5 mg
  Mean time from baseline until undetectable viral load: 11 days
[3]; 2.0 mg
  Mean time from baseline until undetectable viral load: 14 days
[3]; 2.5 mg
  Mean time from baseline until undetectable viral load: 14 days
[3]; Day 4, 1.5 mg
  Mean change in viral load from baseline to: −1.23 log10 copies/ml
[3]; Day 4, 2.0 mg
  Mean change in viral load from baseline to: −1.49 log10 copies/ml
[3]; Day 4, 2.5 mg
  Mean change in viral load from baseline to: −1.32 log10 copies/ml
[3]; Day 4, Total
  Mean change in viral load from baseline to: −1.35 log10 copies/ml
[3]; Day 7, 1.5 mg
  Mean change in viral load from baseline to: −2.55 log10 copies/ml
[3]; Day 7, 2.0 mg
  Mean change in viral load from baseline to: −2.26 log10 copies/ml
[3]; Day 7, 2.5 mg
  Mean change in viral load from baseline to: −2.25 log10 copies/ml
[3]; Day 7, Total
  Mean change in viral load from baseline to: −2.35 log10 copies/ml
[3]; Day 15, 1.5 mg
  Mean change in viral load from baseline to: −4.22 log10 copies/ml
[3]; Day 15, 2.0 mg
  Mean change in viral load from baseline to: −2.70 log10 copies/ml
[3]; Day 15, 2.5 mg
  Mean change in viral load from baseline to: −2.92 log10 copies/ml
[3]; Day 15, Total
  Mean change in viral load from baseline to: −3.25 log10 copies/ml
[3]; Day 31, 1.5 mg
  Mean change in viral load from baseline to: −4.70 log10 copies/ml
[3]; Day 31, 2.0 mg
  Mean change in viral load from baseline to: −3.53 log10 copies/ml
[3]; Day 31, 2.5 mg
  Mean change in viral load from baseline to: −3.49 log10 copies/ml
[3]; Day 31, Total
  Mean change in viral load from baseline to: −3.85 log10 copies/ml
[3]; Total
  Mean time from baseline until undetectable viral load: 13 days
[3]; day 4
  mean viral load decline from baseline: 1.35 log10 copies/ml
[3]; day 7
  mean viral load decline from baseline: 2.35 log10 copies/ml
[3]; day 15
  mean viral load decline from baseline: 3.25 log10 copies/ml
[3]; day 31
  mean viral load decline from baseline: 3.85 log10 copies/ml
[3]; 1.5 mg/d, Day 4
  log10 viral load: 5.14 copies/ mL and 3.25 copies/ mL and 8.4 copies/ mL and 9.54 copies/ mL and 6.54 copies/ mL and 3.61 copies/ mL and 7.39 copies/ mL and 4.02 copies/ mL and 6.56 copies/ mL and 5.76 copies/ mL
[3]; 1.5 mg/d, Day 7
  log10 viral load: 8.47 copies/ mL and 6.63 copies/ mL and 4.34 copies/ mL and 4.7 copies/ mL and 5.83 copies/ mL and 4.71 copies/ mL and 3.82 copies/ mL
[3]; 1.5 mg/d, Day 15
  log10 viral load: 6.05 copies/ mL and 7.46 copies/ mL
[3]; 1.5 mg/d, Day 31
  log10 viral load: 4.42 copies/ mL
[3]; 2 mg/d, Day 4
  log10 viral load: 7.95 copies/ mL and 4.46 copies/ mL and 5.3 copies/ mL and 6.17 copies/ mL and 4.53 copies/ mL and 4.47 copies/ mL and 5.34 copies/ mL and 5.99 copies/ mL and 5.69 copies/ mL and 5.5 copies/ mL
[3]; 2 mg/d, Day 7
  log10 viral load: 6.52 copies/ mL and 4.68 copies/ mL and 4.59 copies/ mL and 3.38 copies/ mL and 4.02 copies/ mL and 3.62 copies/ mL and 4.33 copies/ mL and 2.89 copies/ mL and 5.2 copies/ mL and 5.49 copies/ mL
[3]; 2 mg/d, Day 15
  log10 viral load: 8.14 copies/ mL and 5.52 copies/ mL and 5.22 copies/ mL and 4.43 copies/ mL and 4.92 copies/ mL
[3]; 2 mg/d, Day 31
  log10 viral load: 7.37 copies/ mL and 4.31 copies/ mL and 4.69 copies/ mL
[3]; 2.5 mg/d, Day 4
  log10 viral load: 4.3 copies/ mL and 5.45 copies/ mL and 4.37 copies/ mL and 4.77 copies/ mL and 5.57 copies/ mL and 6.26 copies/ mL and 8.67 copies/ mL and 9.84 copies/ mL and 3.79 copies/ mL and 9.25 copies/ mL
[3]; 2.5 mg/d, Day 7
  log10 viral load: 3.05 copies/ mL and 4.44 copies/ mL and 5.49 copies/ mL and 3.33 copies/ mL and 7.29 copies/ mL and 9.54 copies/ mL and 6.99 copies/ mL
[3]; 2.5 mg/d, Day 15
  log10 viral load: 3.8 copies/ mL and 5.66 copies/ mL and 5.92 copies/ mL and 8.33 copies/ mL
[3]; 2.5 mg/d, Day 31
  log10 viral load: 3.6 copies/ mL and 5.33 copies/ mL and 4.68 copies/ mL
[3]; patients with mild or moderate disease at baseline
  mean time to undetectable viral load: 12 days
[3]; patients with severe disease at baseline
  mean time to undetectable viral load: 15 days
[4]; 1.5 mg/day
  discharge rate at Day 15: 78.6%
  patients achieving hospital discharge by Day 8: 42.9%
[4]; 2 mg/day
  discharge rate at Day 15: 93.3%
  patients achieving hospital discharge by Day 8: 60%
[4]; 2.5 mg/day
  discharge rate at Day 15: 73.3%
  patients achieving hospital discharge by Day 8: 66.7%
[4]; mild COVID-19 at baseline
  median time to discharge: 7 days
[4]; mild disease, 4 of 6
  discharge rate by Day 8: 66.7%
[4]; mild disease, 6 of 6
  discharge rate by Day 15: 100%
[4]; moderate COVID-19 at baseline
  median time to discharge: 7 days
[4]; moderate disease at baseline, 1.5 mg/day, three of eight
  patients discharged beyond day 8: 38%
[4]; moderate disease at baseline, 2.0 mg/day, three of seven
  patients discharged beyond day 8: 43%
[4]; moderate disease at baseline, 2.5 mg/day
  patients discharged by day 8: 8 of 8
[4]; moderate disease, 17 of 23
  discharge rate by Day 8: 73.9%
[4]; moderate disease, 22 of 23
  discharge rate by Day 15: 95.7%
[4]; overall, 25 of 44
  discharge rate by day 8: 56.8%
[4]; overall, 36 of 44
  discharge rate by day 15: 81.8%
[4]; severe COVID-19 at baseline
  median time to discharge: 14 days
[4]; severe disease, 4 of 15
  discharge rate by Day 8: 27%
[4]; severe disease, 8 of 15
  discharge rate by Day 15: 53.3%
[5]; plasma concentrations, non-compartmental analysis, ref study APL-B-015-14
  half-life: 48.1 h
[5]; whole blood concentrations, ref pharmacokinetic population analysis
  half-life: 161 h
[6]
  viral load in lungs: significant reduction in the viral load in lungs
[7]
  major enzyme involved in plitidepsin metabolism: CYP3A4
[8]
  IC50: 38 nM
